# Data published in US20260109707A1, “HETEROBIFUNCTIONAL COMPOUNDS AND METHODS OF TREATING DISEASE” (Halda Therapeutics OpCo. Inc., priority 2022, published 2026).
# Where two headings read alike, the source gives them in different places.
# What was measured:
# [1] = test system: T-Rex 293 cell line SC3 cells lacking increased expression of androgen receptor protein; test: Cellular growth inhibition assay, T-Rex 293 SC3 cells without doxycycline (CellTiter-Glo, 72 hours); type: cell-based; settings: T-Rex 293 cell line SC3 cells not exposed to doxycycline (lacking increased androgen receptor expression)
# Summary of the method: (§1)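 Growth inhibition is measured in an inducible AR-expressing T-Rex 293 clone, SC3, cultured with or without 10 ng/mL doxycycline in hormone-depleted medium. Test compounds are applied for 72 hours. GI50 values derive from CellTiter-Glo 2.0 signal fitted by four-parameter regression.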
# [2] = test system: VCaP cells; test: Cellular growth inhibition assay for VCaP cells (CellTiter-Glo, 72 hours); type: cell-based, human
# Summary of the method: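 Luminescent viability signal after 72 h of compound exposure gave GI50 values by four-parameter nonlinear regression. Compounds were added in 0.5% DMSO to cells plated 24 h earlier at 5000/well in DMEM containing 10% FBS.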
# [3] = test system: T-Rex 293 cell line SC3 cells having increased expression of androgen receptor protein due to exposure to doxycycline; test: Cellular growth inhibition assay, T-Rex 293 SC3 cells with doxycycline (CellTiter-Glo, 72 hours); type: cell-based; settings: T-Rex 293 SC3 cells with increased androgen receptor expression due to doxycycline (10 ng/mL)
# Summary of the method: as §1
Compound,GI50 [2] [nM],"GI50 ([2]; Homo sapiens, VCaP, 72 h) [nM]",GI50 [1] [nM],GI50 [3] [nM],GI50 ([1]; 72 h) [nM],GI50 ([3]; 72 h) [nM]
COCC[C@@H]1N=C(c2ccc(OC3CC4(CCCN(c5ccc(C(=O)N[C@H]6CC[C@H](Oc7ccc(C#N)c(Cl)c7)CC6)nn5)C4)C3)cc2)c2c(sc(C)c2C)-n2c(C)nnc21 (stereo partly drawn) [I-663],< 500,–,< 500,< 500,–,–
COCC[C@@H]1N=C(c2ccc(N3CCC4(CCN(c5ccc(C(=O)N[C@H]6CC[C@H](Oc7ccc(C#N)c(Cl)c7)CC6)nn5)CC4)C3)cc2)c2c(sc(C)c2C)-n2c(C)nnc21 [I-600],–,> 3000,–,–,< 500,< 500
Cc1sc2c(c1C)C(c1ccc(N3CCC4CN(c5ccc(C(=O)N[C@H]6CC[C@H](Oc7ccc(C#N)c(Cl)c7)CC6)nn5)CCC4C3)cc1)=NC1(CC1)c1nnc(C)n1-2 (stereo partly drawn) [I-549],> 3000,–,< 500,–,–,< 500
Cc1sc2c(c1C)C(c1ccc(C3CCC4(CC3)CCN(c3ccc(C(=O)N[C@H]5CC[C@H](Oc6ccc(C#N)c(Cl)c6)CC5)nn3)C4)nc1)=NC1(CC1)c1nnc(C)n1-2 (stereo partly drawn) [I-608],< 500,–,500 to 1500,< 500,–,–
Cc1sc2c(c1C)C(c1ccc(N3CCN(CC4CCN(c5ccc(C(=O)N[C@H]6CC[C@H](Oc7ccc(C#N)c(Cl)c7)CC6)nn5)CC4)CC3)cc1)=NC1(CC1)c1nnc(C)n1-2 [I-491],–,> 3000,–,–,< 500,< 500
COCC1N=C(c2ccc(C#CC3CC4(C3)CN(c3ccc(C(=O)N[C@H]5CC[C@H](Oc6ccc(C#N)c(Cl)c6)CC5)nn3)C4)cc2)c2c(sc(C)c2C)-n2c(C)nnc21 (stereo partly drawn) [I-570],–,< 500,> 3000,–,–,< 500
Cc1sc2c(c1C)C(c1ccc(N3CCN(C4CCN(c5ncc(C(=O)N[C@H]6CC[C@H](Oc7ccc(C#N)c(Cl)c7)CC6)cn5)CC4)CC3)cc1)=NC(Cc1ncco1)c1nnc(C)n1-2 (stereo partly drawn) [I-798],–,< 500,–,–,< 500,< 500
Cc1sc2c(c1C)C(c1ccc(OC3CCC4(C3)CN(c3ccc(C(=O)N[C@H]5CC[C@H](Oc6ccc(C#N)c(Cl)c6)CC5)nn3)CCO4)cc1)=NC1(CC1)c1nnc(C)n1-2 (stereo partly drawn) [I-507],> 3000,–,> 3000,< 500,–,–
Cc1sc2c(c1C)C(c1ccc(N3CCC4(CCN(c5ccc(C(=O)N[C@H]6CC[C@H](Oc7ccc(C#N)c(Cl)c7)CC6)nn5)C4)C3)cc1)=NC1(CC1)c1nnc(C)n1-2 (stereo partly drawn) [I-521],1500 to 3000,–,–,–,< 500,< 500
Cc1sc2c(c1C)C(c1ccc(OC3CC4(CCN(c5ccc(C(=O)N[C@H]6CC[C@H](Oc7ccc(C#N)c(Cl)c7)CC6)nn5)CC4)C3)nc1)=N[C@@H](C)c1nnc(C)n1-2 [I-462],< 500,–,> 3000,< 500,–,–
Cc1sc2c(c1C)C(c1ccc(OC3CCC4(CCCN(c5ccc(C(=O)N[C@H]6CC[C@H](Oc7ccc(C#N)c(Cl)c7)CC6)nn5)C4)C3)cc1)=NC1(CC1)c1nnc(C)n1-2 (stereo partly drawn) [I-525],< 500,–,> 3000,< 500,–,–
Cc1sc2c(c1C)C(c1ccc(N3CC(C4CCN(c5ccc(C(=O)N[C@H]6CC[C@H](Oc7ccc(C#N)c(Cl)c7)CC6)nn5)C4)C3)cc1)=NC1(CC1)c1nnc(C)n1-2 (stereo partly drawn) [I-550],–,< 500,< 500,–,–,< 500
Cc1sc2c(c1C)C(c1ccc(C#CC3CC4(CCCN(c5ccc(C(=O)N[C@H]6CC[C@H](Oc7ccc(C#N)c(Cl)c7)CC6)nn5)C4)C3)cn1)=NC(C)c1nnc(C)n1-2 (stereo partly drawn) [I-481],< 500,–,< 500,–,–,< 500
Cc1sc2c(c1C)C(c1ccc(CC3CCC4(CCCN(c5ccc(C(=O)N[C@H]6CC[C@H](Oc7ccc(C#N)c(Cl)c7)CC6)nn5)C4)C3)cc1)=N[C@@H](C)c1nnc(C)n1-2 (stereo partly drawn) [I-584],1500 to 3000,–,< 500,< 500,–,–
COCC[C@@H]1N=C(c2ccc(C#CC3CC4(C3)CN(c3ccc(C(=O)N[C@H]5CC[C@H](Oc6ccc(C#N)c(Cl)c6)CC5)nn3)C4)cc2)c2c(sc(C)c2C)-n2c(C)nnc21 [I-572],–,< 500,–,–,< 500,< 500
COC[C@@H]1N=C(c2ccc(C3CCC4(CCN(c5ccc(C(=O)N[C@H]6CC[C@H](Oc7ccc(C#N)c(Cl)c7)CC6)nn5)CC4)C3)cc2)c2c(sc(C)c2C)-n2c(C)nnc21 (stereo partly drawn) [I-659],< 500,–,< 500,< 500,–,–
Cc1sc2c(c1C)C(c1ccc(C#CC3CC(Cc4ccc(C(=O)N[C@H]5CC[C@H](Oc6ccc(C#N)c(Cl)c6)CC5)nn4)C3)cc1)=N[C@@H](Cc1ncco1)c1nnc(C)n1-2 (stereo partly drawn) [I-645],–,< 500,> 3000,–,–,< 500
Cc1sc2c(c1C)C(c1ccc(C3CCC4(CCN(c5ccc(C(=O)N[C@H]6CC[C@H](Oc7ccc(C#N)c(Cl)c7)CC6)nn5)CC4)C3)nc1)=NC1(CC1)c1nnc(C)n1-2 (stereo partly drawn) [I-739],< 500,–,500 to 1500,< 500,–,–
Cc1sc2c(c1C)C(c1ccc(N3CCC4(CCN(c5ccc(C(=O)N[C@H]6CC[C@H](Oc7ccc(C#N)c(Cl)c7)CC6)nn5)C4)C3)c(F)c1)=N[C@@H](C)c1nnc(C)n1-2 (stereo partly drawn) [I-731],500 to 1500,–,–,–,< 500,< 500
COCC[C@@H]1N=C(c2ccc(C3CCC4(CCCN(c5ccc(C(=O)N[C@H]6CC[C@H](Oc7ccc(C#N)c(Cl)c7)CC6)nn5)C4)CC3)cc2)c2c(sc(C)c2C)-n2c(C)nnc21 (stereo partly drawn) [I-657],500 to 1500,–,> 3000,< 500,–,–
Cc1sc2c(c1C)C(c1ccc(N3CCC(CN4CCN(c5ccc(C(=O)N[C@H]6CC[C@H](Oc7ccc(C#N)c(Cl)c7)CC6)nn5)CC4)CC3)cc1)=NC1(CC1)c1nnc(C)n1-2 [I-480],–,< 500,–,–,500 to 1500,< 500

# More lines, main results first:
GI50 [2] [nM],"GI50 ([2]; Homo sapiens, VCaP, 72 h) [nM]",Compound,GI50 [1] [nM],GI50 [3] [nM],GI50 ([1]; 72 h) [nM],GI50 ([3]; 72 h) [nM]
< 500,–,"Cc1sc2c(c1C)C(c1ccc(C3CCC4(CCN(c5ccc(C(=O)N[C@H]6CC[C@H](Oc7ccc(C#N)c(Cl)c7)CC6)nn5)C4)C3)cc1)=N[C@@H](C)c1nnc(C)n1-2 (stereo partly drawn) [I-822, N-[4-(3-chloro-4-cyano-phenoxy)cyclohexyl]-6-[8-[4-[(9S)-4,5,9,13-tetramethyl-3-thia-1,8,11,12-tetrazatricyclo[8.3.0.02,6]trideca-2(6),4,7,10,12-pentaen-7-yl]phenyl]-2-azaspiro[4.4]nonan-2-yl]pyridazine-3-carboxamide]",< 500,< 500,–,–
–,< 500,"Cc1sc2c(c1C)C(c1ccc(N3CCOC4(CCN(c5ccc(C(=O)N[C@H]6CC[C@H](Oc7ccc(C#N)c(Cl)c7)CC6)nn5)C4)C3)cc1)=N[C@@H](C)c1nnc(C)n1-2 (single isomer, unassigned) [I-827]",–,–,< 500,< 500
–,< 500,Cc1sc2c(c1C)C(c1ccc(N3C[C@@H]4[C@H](C3)[C@H]4Nc3ncc(C(=O)N[C@H]4CC[C@H](Oc5ccc(C#N)c(Cl)c5)CC4)cn3)cc1)=NC(Cc1ncco1)c1nnc(C)n1-2 (stereo partly drawn) [I-805],–,–,< 500,< 500
500 to 1500,–,COC[C@@H]1N=C(c2ccc(C3CCC4(CCCN(c5ccc(C(=O)N[C@H]6CC[C@H](Oc7ccc(C#N)c(Cl)c7)CC6)nn5)C4)CC3)cc2)c2c(sc(C)c2C)-n2c(C)nnc21 (stereo partly drawn) [I-655],< 500,< 500,–,–
> 3000,–,Cc1sc2c(c1C)C(c1ccc(CC3CC4(CCCN(c5ccc(C(=O)N[C@H]6CC[C@H](Oc7ccc(C#N)c(Cl)c7)CC6)nn5)C4)C3)cc1)=NCc1nnc(C)n1-2 (stereo partly drawn) [I-474],> 3000,–,–,< 500
–,1500 to 3000,Cc1sc2c(c1C)C(c1ccc(N3CCC4(CCCN(c5ccc(C(=O)N[C@H]6CC[C@H](Oc7ccc(C#N)c(Cl)c7)CC6)nn5)C4)CC3)nc1)=NC1(CC1)c1nnc(C)n1-2 [I-448],–,–,> 3000,< 500
< 500,–,Cc1sc2c(c1C)C(c1ccc(CC3CC4(CCN(c5ccc(C(=O)N[C@H]6CC[C@H](Oc7ccc(C#N)c(Cl)c7)CC6)nn5)CC4)C3)cc1)=NC(C(F)(F)F)c1nnc(C)n1-2 (stereo partly drawn) [I-729],> 3000,< 500,–,–
< 500,–,Cc1sc2c(c1C)C(c1ccc(C#CC3CC4(CCCN(c5ccc(C(=O)N[C@H]6CC[C@H](Oc7ccc(C#N)c(Cl)c7)CC6)nn5)C4)C3)nc1)=N[C@@H](C)c1nnc(C)n1-2 (stereo partly drawn) [I-460],500 to 1500,< 500,–,–
–,< 500,Cc1sc2c(c1C)C(c1ccc(C#CC3CC4(C3)CN(c3ccc(C(=O)N[C@H]5CC[C@H](Oc6ccc(C#N)c(Cl)c6)CC5)nn3)C4)cn1)=N[C@@H](C)c1nnc(C)n1-2 [I-458],–,–,< 500,< 500
–,> 3000,Cc1sc2c(c1C)C(c1ccc(N3CCC(CC4CCN(c5ccc(C(=O)N[C@H]6CC[C@H](Oc7ccc(C#N)c(Cl)c7)CC6)nn5)CC4)CC3)cc1)=N[C@@H](C)c1nnc(C)n1-2 [I-500],–,–,> 3000,< 500
–,> 3000,Cc1sc2c(c1C)C(c1ccc(C3CCC4(CCCN(c5ccc(C(=O)N[C@H]6CC[C@H](Oc7ccc(C#N)c(Cl)c7)CC6)nn5)C4)CC3)cc1)=NC(C(F)(F)F)c1nnc(C)n1-2 (stereo partly drawn) [I-694],–,–,> 3000,> 3000
–,< 500,Cc1sc2c(c1C)C(c1ccc(C#CC3CC4(CCCN(c5ccc(C(=O)N[C@H]6CC[C@H](Oc7ccc(C#N)c(Cl)c7)CC6)nn5)C4)C3)cn1)=NC(C)c1nnc(C)n1-2 (stereo partly drawn) [I-454],> 3000,< 500,–,–
–,< 500,COC[C@@H]1N=C(c2ccc(N3CCC4(CCN(c5ccc(C(=O)N[C@H]6CC[C@H](Oc7ccc(C#N)c(Cl)c7)CC6)nn5)CC4)C3)cc2)c2c(sc(C)c2C)-n2c(C)nnc21 [I-615],–,–,< 500,< 500
